Assay results taken from patent US20240074996A1, “C5 KETONE COMPOSITIONS AND RELATED METHODS FOR TREATING METABOLIC DYSFUNCTION” (Keto Innovations, LLC, priority 2018, published 2024).

Columns and labels:
[1] = Blood glucose after oral BHP or BKP (Example 1); type: in vivo, human; details: 10 g oral in water, 12 h fast
Description: (§1) Two (2) healthy, male subjects reported to the laboratory following a 12 hour overnight fast. Subjects were instructed to randomly consume either 10 grams of BHP or 10 grams BKP dissolved in 12 ounces of water. Subjects were then monitored for 150 minutes following drinking the mixture. Blood glucose, ketones, and visual analog scales (VAS) of well-being, energy, and focus were taken at 0, 30, 60, 90, 120, and 150 minutes. VAS scales consisted of a continuum of numbers from 1-10 with 1 being extremely low and 10 being extremely high.
(§2) Blood ketones were measured via finger prick using an Abbott Precision device which determines mMol of BHB. Blood glucose was measured using Abbott Precision glucose strips and was measured in mg/dL.

[2] = Blood ketones (BHB, Abbott Precision) after oral BHP or BKP (Example 1); type: in vivo, human; details: 10 g oral in water, 12 h fast
Description: as §1, §2

[3] = Visual analog scale of well-being after BHP or BKP (Example 1); type: in vivo, human; details: scale 1-10, 10 g oral, 12 h fast
Description: as §1

[4] = Visual analog scale of energy after BHP or BKP (Example 1); type: in vivo, human; details: scale 1-10, 10 g oral, 12 h fast
Description: as §1

[5] = Visual analog scale of focus after BHP or BKP (Example 1); type: in vivo, human; details: scale 1-10, 10 g oral, 12 h fast
Description: as §1

[6] = Blood ketones after oral BHP (Example 3); type: in vivo, human; details: 10 g BHP oral in water
Description: (§3) Subjects consumed 10 grams of BHP dissolved in 12 ounces of water. Subjects were then monitored for 80 minutes following drinking the mixture. Blood glucose, ketones, and lactate were taken at 0, 20, 40, 60, and 80 minutes.
(§4) Blood ketones were measured via finger prick using an Abbott Precision device which determines mMol of BHB. Blood glucose was measured using Abbott Precision glucose strips and was measured in mg/dL. Blood lactate was measured using an Abbott Precision device which determines mMol of lactate.

[7] = Blood glucose after oral BHP (Example 3); type: in vivo, human; details: 10 g BHP oral in water
Description: as §3, §4

[8] = Blood lactate after oral BHP, safety (Example 3); type: in vivo, human; details: 10 g BHP oral in water
Description: The purpose of this experiment was to determine safety associated with ingestion of exogenous C5 ketones with regard to hyperlactemia, lactic acidosis, or ketoacidosis that sometimes happens with medications, as all 3 are associated with morbidity and mortality.
as §3, §4

[9] = short-term experiments; large supply of propionyl-CoA; cited from earlier work

CCC(O)CC(=O)O (stereo not drawn) [BHP, β-hydroxypentanoate] showed a Blood glucose levels ([1]; Combined, 0 min.) of 84 mg/dL, a Blood glucose levels ([1]; Combined, 30 min.) of 80.5 mg/dL and a Blood glucose levels ([1]; Combined, 60 min.) of 70.5 mg/dL. For the same compound, the Blood glucose levels ([1]; Combined, 90 min.) was 79 mg/dL, the Blood glucose levels ([1]; Combined, 120 min.) was 83.5 mg/dL and the Blood glucose levels ([1]; Combined, 150 min.) was 90.5 mg/dL. The Blood glucose levels ([1]; Subject 1, 0 min.) was 84 mg/dL, the Blood glucose levels ([1]; Subject 1, 30 min.) was 85 mg/dL and the Blood glucose levels ([1]; Subject 1, 60 min.) was 75 mg/dL. It also gave a Blood glucose levels ([1]; Subject 1, 90 min.) of 79 mg/dL, a Blood glucose levels ([1]; Subject 1, 120 min.) of 86 mg/dL and a Blood glucose levels ([1]; Subject 1, 150 min.) of 91 mg/dL. It also gave a Blood glucose levels ([1]; Subject 2, 0 min.) of 84 mg/dL, a Blood glucose levels ([1]; Subject 2, 30 min.) of 76 mg/dL and a Blood glucose levels ([1]; Subject 2, 60 min.) of 66 mg/dL. It also gave a Blood glucose levels ([1]; Subject 2, 90 min.) of 79 mg/dL, a Blood glucose levels ([1]; Subject 2, 120 min.) of 81 mg/dL and a Blood glucose levels ([1]; Subject 2, 150 min.) of 90 mg/dL. It also gave a Blood ketone levels ([2]; Combined, 0 min.) of 0.1 mmol, a Blood ketone levels ([2]; Combined, 30 min.) of 1.6 mmol and a Blood ketone levels ([2]; Combined, 60 min.) of 0.55 mmol. It also gave a Blood ketone levels ([2]; Combined, 90 min.) of 0.2 mmol, a Blood ketone levels ([2]; Combined, 120 min.) of 0.3 mmol and a Blood ketone levels ([2]; Combined, 150 min.) of 0.2 mmol. The Blood ketone levels ([2]; Subject 1, 0 min.) was 0.1 mmol, the Blood ketone levels ([2]; Subject 1, 30 min.) was 1.8 mmol and the Blood ketone levels ([2]; Subject 1, 60 min.) was 0.7 mmol. For the same compound, the Blood ketone levels ([2]; Subject 1, 90 min.) was 0.2 mmol, the Blood ketone levels ([2]; Subject 1, 120 min.) was 0.2 mmol and the Blood ketone levels ([2]; Subject 1, 150 min.) was 0.2 mmol. It also gave a Blood ketone levels ([2]; Subject 2, 0 min.) of 0.1 mmol, a Blood ketone levels ([2]; Subject 2, 30 min.) of 1.4 mmol and a Blood ketone levels ([2]; Subject 2, 60 min.) of 0.4 mmol. For the same compound, the Blood ketone levels ([2]; Subject 2, 90 min.) was 0.2 mmol, the Blood ketone levels ([2]; Subject 2, 120 min.) was 0.4 mmol and the Blood ketone levels ([2]; Subject 2, 150 min.) was 0.2 mmol. The “VAS of Well-Being” value ([3]; Combined, 0 min.) was 6, the “VAS of Well-Being” value ([3]; Combined, 30 min.) was 5 and the “VAS of Well-Being” value ([3]; Combined, 60 min.) was 4.5. The “VAS of Well-Being” value ([3]; Combined, 90 min.) was 6, the “VAS of Well-Being” value ([3]; Combined, 120 min.) was 4.5 and the “VAS of Well-Being” value ([3]; Combined, 150 min.) was 5. For the same compound, the “VAS of Well-Being” value ([3]; Subject 1, 0 min.) was 7, the “VAS of Well-Being” value ([3]; Subject 1, 30 min.) was 5 and the “VAS of Well-Being” value ([3]; Subject 1, 60 min.) was 5. For the same compound, the “VAS of Well-Being” value ([3]; Subject 1, 90 min.) was 7, the “VAS of Well-Being” value ([3]; Subject 1, 120 min.) was 5 and the “VAS of Well-Being” value ([3]; Subject 1, 150 min.) was 6. The “VAS of Well-Being” value ([3]; Subject 2, 0 min.) was 5, the “VAS of Well-Being” value ([3]; Subject 2, 30 min.) was 5 and the “VAS of Well-Being” value ([3]; Subject 2, 60 min.) was 4. The “VAS of Well-Being” value ([3]; Subject 2, 90 min.) was 5, the “VAS of Well-Being” value ([3]; Subject 2, 120 min.) was 4 and the “VAS of Well-Being” value ([3]; Subject 2, 150 min.) was 4. For the same compound, the “VAS of Energy” value ([4]; Combined, 0 min.) was 4, the “VAS of Energy” value ([4]; Combined, 30 min.) was 3.5 and the “VAS of Energy” value ([4]; Combined, 60 min.) was 3.5. The “VAS of Energy” value ([4]; Combined, 90 min.) was 5, the “VAS of Energy” value ([4]; Combined, 120 min.) was 4.5 and the “VAS of Energy” value ([4]; Combined, 150 min.) was 6. For the same compound, the “VAS of Energy” value ([4]; Subject 1, 0 min.) was 5, the “VAS of Energy” value ([4]; Subject 1, 30 min.) was 4 and the “VAS of Energy” value ([4]; Subject 1, 60 min.) was 5. For the same compound, the “VAS of Energy” value ([4]; Subject 1, 90 min.) was 7, the “VAS of Energy” value ([4]; Subject 1, 120 min.) was 5 and the “VAS of Energy” value ([4]; Subject 1, 150 min.) was 7. For the same compound, the “VAS of Energy” value ([4]; Subject 2, 0 min.) was 3, the “VAS of Energy” value ([4]; Subject 2, 30 min.) was 3 and the “VAS of Energy” value ([4]; Subject 2, 60 min.) was 2. The “VAS of Energy” value ([4]; Subject 2, 90 min.) was 3, the “VAS of Energy” value ([4]; Subject 2, 120 min.) was 4 and the “VAS of Energy” value ([4]; Subject 2, 150 min.) was 5. For the same compound, the “VAS of Focus” value ([5]; Combined, 0 min.) was 3.5, the “VAS of Focus” value ([5]; Combined, 30 min.) was 4 and the “VAS of Focus” value ([5]; Combined, 60 min.) was 3. For the same compound, the “VAS of Focus” value ([5]; Combined, 90 min.) was 3, the “VAS of Focus” value ([5]; Combined, 120 min.) was 5 and the “VAS of Focus” value ([5]; Combined, 150 min.) was 5. For the same compound, the “VAS of Focus” value ([5]; Subject 1, 0 min.) was 5, the “VAS of Focus” value ([5]; Subject 1, 30 min.) was 5 and the “VAS of Focus” value ([5]; Subject 1, 60 min.) was 5. For the same compound, the “VAS of Focus” value ([5]; Subject 1, 90 min.) was 5, the “VAS of Focus” value ([5]; Subject 1, 120 min.) was 5 and the “VAS of Focus” value ([5]; Subject 1, 150 min.) was 5. For the same compound, the “VAS of Focus” value ([5]; Subject 2, 0 min.) was 2, the “VAS of Focus” value ([5]; Subject 2, 30 min.) was 3 and the “VAS of Focus” value ([5]; Subject 2, 60 min.) was 3. For the same compound, the “VAS of Focus” value ([5]; Subject 2, 90 min.) was 3, the “VAS of Focus” value ([5]; Subject 2, 120 min.) was 5 and the “VAS of Focus” value ([5]; Subject 2, 150 min.) was 5. The “Blood Ketones” value ([6]; 0 min.) was 0.3 mmol/L, the “Blood Ketones” value ([6]; 20 min.) was 0.6 mmol/L and the “Blood Ketones” value ([6]; 40 min.) was 1.8 mmol/L. The “Blood Ketones” value ([6]; 60 min.) was 1.1 mmol/L, the “Blood Ketones” value ([6]; 80 min.) was 0.5 mmol/L and the “Blood Glucose” value ([7]; 0 min.) was 99.5 mg/dL. For the same compound, the “Blood Glucose” value ([7]; 20 min.) was 103 mg/dL, the “Blood Glucose” value ([7]; 40 min.) was 102.5 mg/dL and the “Blood Glucose” value ([7]; 60 min.) was 94.5 mg/dL. The “Blood Glucose” value ([7]; 80 min.) was 92.5 mg/dL, the “Blood Lactate” value ([8]; 0 min.) was 1.3 mmol/L and the “Blood Lactate” value ([8]; 20 min.) was 1.4 mmol/L. For the same compound, the “Blood Lactate” value ([8]; 40 min.) was 0.7 mmol/L, the “Blood Lactate” value ([8]; 60 min.) was 0.9 mmol/L and the “Blood Lactate” value ([8]; 80 min.) was 1.1 mmol/L. For the same compound, the “Metabolism and tolerance in animals” value [9] was “well metabolized in animals without apparent intolerance”.
